Measurements as given in ChEMBL document CHEMBL1201862, “PubChem BioAssay data set” (2004).
The source made the active and inactive calls.

How the values were obtained:
HEK293 [1] = experiment: cells; assay type: functional, cell-based; conditions: Homo sapiens
[2] = target: Nucleotide-binding oligomerization domain-containing protein 2 (Homo sapiens, UniProt Q9HC29); experiment: inhibition of NOD2-driven NF-kB reporter – cell-based, luminescence, uHTS, HEK293 (AID 1566); assay type: functional
HEK293 [3] = experiment: cells; assay type: functional, cell-based; conditions: Homo sapiens; remark: listed apart in the source
HEK293 [4] = experiment: NOD2 signaling inhibitors in MDP-stimulated cells, cell-based, uHTS, luminescence (AID 2001); assay type: functional; conditions: Homo sapiens
HEK293 [5] = experiment: inhibition of NOD1-driven NF-kB reporter – cell-based, luminescence, uHTS, primary screen (AID 1578); assay type: functional; conditions: Homo sapiens
HEK293 [6] = experiment: cells; assay type: functional, cell-based; conditions: Homo sapiens; remark: listed apart in the source
[7] = Luminescence Cell-Based Dose Confirmation HTS to Identify Activators of 5'UTR Stem-Loop Driven Alpha-Synuclein mRNA Translation in H4 Neuroglioblastoma Cells. [Related pubchem assays: 1829 (Project Summary), 1814 (Primary HTS)]; assay type: functional
[8] = Trypanosoma cruzi growth suppression in host cells – NIH3T3 host cells, beta-gal luminescence, confirmation (AID 2044); assay type: functional, cell-based;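 further: intracellular parasites grown in NIH/3T3 mouse fibroblasts as host cells; luminescent beta-galactosidase reporter signal from transgenic T. cruzi replicating inside host cells; inhibitors lower the luminescence signal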
[9] = NIH3T3 cell viability loss – ATP luminescence, mouse fibroblasts, counter-screen, dose response (AID 2010); assay type: functional, cell-based;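 further: cells exposed to compound for about 90 hours before reading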
[10] = Luminescence Cell-Based Dose Response HTS to Identify Activators of Luciferase Translation or Activity in H4 […] Cells. [Related pubchem assays: 1829 (Project Summary), 1814 (Primary HTS)]; assay type: functional
cells [11] = experiment: cells
Vero = experiment: cells; assay type: functional; conditions: Chlorocebus sabaeus
H4 = experiment: Luminescence Cell-Based Dose Response HTS to Identify Activators of 5'UTR Stem-Loop Driven Prion Protein mRNA Translation in H4 Neuroglioblastoma Cells. [Related pubchem assays: 1829 (Project Summary), 1814 (Primary HTS)]; assay type: functional; conditions: Homo sapiens
[12] = A Cell Based Secondary Assay To Explore Cytotoxicity of Compounds that Sensitize Mycobacterium Tuberculosis to Beta-Lactam Antibiotics.; assay type: functional
[13] = target: T1, Replicative DNA helicase DnaB (Mycobacterium tuberculosis, UniProt P9WMR3); experiment: DnaB intein splicing inhibitors, dose response, biochemical, cell-free fluorescence (AID 449749); assay type: functional
T1 sequence (P9WMR3 whole entry): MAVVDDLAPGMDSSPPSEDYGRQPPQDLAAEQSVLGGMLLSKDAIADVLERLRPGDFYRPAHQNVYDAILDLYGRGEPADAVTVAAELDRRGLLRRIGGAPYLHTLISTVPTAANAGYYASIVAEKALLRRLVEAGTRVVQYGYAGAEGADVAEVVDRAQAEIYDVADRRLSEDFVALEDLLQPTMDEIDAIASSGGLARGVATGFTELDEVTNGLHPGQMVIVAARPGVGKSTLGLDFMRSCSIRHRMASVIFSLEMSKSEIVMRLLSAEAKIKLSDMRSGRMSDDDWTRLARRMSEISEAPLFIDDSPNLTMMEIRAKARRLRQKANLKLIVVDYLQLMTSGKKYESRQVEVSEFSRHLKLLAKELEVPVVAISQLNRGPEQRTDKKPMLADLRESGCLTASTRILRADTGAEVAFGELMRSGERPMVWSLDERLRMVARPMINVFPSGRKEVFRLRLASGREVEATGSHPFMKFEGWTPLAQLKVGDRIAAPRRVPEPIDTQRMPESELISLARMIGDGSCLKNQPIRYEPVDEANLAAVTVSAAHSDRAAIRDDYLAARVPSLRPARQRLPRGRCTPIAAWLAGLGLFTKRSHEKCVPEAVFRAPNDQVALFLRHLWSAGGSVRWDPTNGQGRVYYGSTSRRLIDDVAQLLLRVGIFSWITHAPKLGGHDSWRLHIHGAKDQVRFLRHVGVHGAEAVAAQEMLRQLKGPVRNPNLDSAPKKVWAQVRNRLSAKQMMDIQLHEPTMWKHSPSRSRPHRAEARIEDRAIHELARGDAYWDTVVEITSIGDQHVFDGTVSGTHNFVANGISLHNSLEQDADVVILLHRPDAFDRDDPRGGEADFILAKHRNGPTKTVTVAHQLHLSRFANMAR

Protein RecA = target: T2, Protein RecA (Mycobacterium tuberculosis, UniProt P9WHJ3); experiment: Fluorescence Cell-Free Homogeneous Dose Retest to Identify Inhibitors of RecA-Intein Splicing Activity. [Related pubchem assays (depositor defined):AID2097, AID2223, AID489010, AID492950]; assay type: functional
T2 sequence (P9WHJ3 whole entry): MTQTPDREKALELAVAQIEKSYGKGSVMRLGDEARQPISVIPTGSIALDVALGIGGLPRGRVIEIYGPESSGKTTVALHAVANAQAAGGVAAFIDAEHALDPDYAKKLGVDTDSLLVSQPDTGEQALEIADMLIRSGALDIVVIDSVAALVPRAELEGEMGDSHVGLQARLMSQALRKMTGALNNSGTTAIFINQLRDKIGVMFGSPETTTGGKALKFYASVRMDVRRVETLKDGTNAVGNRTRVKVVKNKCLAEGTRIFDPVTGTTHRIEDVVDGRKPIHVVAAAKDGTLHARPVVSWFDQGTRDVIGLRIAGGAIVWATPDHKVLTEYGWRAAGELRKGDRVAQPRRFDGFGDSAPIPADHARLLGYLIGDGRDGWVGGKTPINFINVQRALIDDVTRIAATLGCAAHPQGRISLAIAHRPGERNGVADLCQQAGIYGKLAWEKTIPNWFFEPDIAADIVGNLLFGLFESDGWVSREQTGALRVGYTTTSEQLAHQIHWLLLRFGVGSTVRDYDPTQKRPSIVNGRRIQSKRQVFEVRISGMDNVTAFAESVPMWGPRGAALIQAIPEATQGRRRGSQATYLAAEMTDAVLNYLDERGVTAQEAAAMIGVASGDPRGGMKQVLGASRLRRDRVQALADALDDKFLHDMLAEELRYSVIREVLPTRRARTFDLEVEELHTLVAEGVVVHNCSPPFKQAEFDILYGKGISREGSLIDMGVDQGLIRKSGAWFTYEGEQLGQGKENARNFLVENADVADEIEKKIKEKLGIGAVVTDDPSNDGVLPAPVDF

[14] = target: T3, Voltage-gated N-type calcium channel alpha-1B subunit/Amyloid beta A4 precursor protein-binding family A member 1 (Homo sapiens, UniProt Q00975+Q02410); experiment: disruptors of Mint-PDZ/N-type channel peptide interaction – biochemical, HTRF, SAR follow-up (AID 2489); assay type: functional
T3 sequence (Q00975 whole entry): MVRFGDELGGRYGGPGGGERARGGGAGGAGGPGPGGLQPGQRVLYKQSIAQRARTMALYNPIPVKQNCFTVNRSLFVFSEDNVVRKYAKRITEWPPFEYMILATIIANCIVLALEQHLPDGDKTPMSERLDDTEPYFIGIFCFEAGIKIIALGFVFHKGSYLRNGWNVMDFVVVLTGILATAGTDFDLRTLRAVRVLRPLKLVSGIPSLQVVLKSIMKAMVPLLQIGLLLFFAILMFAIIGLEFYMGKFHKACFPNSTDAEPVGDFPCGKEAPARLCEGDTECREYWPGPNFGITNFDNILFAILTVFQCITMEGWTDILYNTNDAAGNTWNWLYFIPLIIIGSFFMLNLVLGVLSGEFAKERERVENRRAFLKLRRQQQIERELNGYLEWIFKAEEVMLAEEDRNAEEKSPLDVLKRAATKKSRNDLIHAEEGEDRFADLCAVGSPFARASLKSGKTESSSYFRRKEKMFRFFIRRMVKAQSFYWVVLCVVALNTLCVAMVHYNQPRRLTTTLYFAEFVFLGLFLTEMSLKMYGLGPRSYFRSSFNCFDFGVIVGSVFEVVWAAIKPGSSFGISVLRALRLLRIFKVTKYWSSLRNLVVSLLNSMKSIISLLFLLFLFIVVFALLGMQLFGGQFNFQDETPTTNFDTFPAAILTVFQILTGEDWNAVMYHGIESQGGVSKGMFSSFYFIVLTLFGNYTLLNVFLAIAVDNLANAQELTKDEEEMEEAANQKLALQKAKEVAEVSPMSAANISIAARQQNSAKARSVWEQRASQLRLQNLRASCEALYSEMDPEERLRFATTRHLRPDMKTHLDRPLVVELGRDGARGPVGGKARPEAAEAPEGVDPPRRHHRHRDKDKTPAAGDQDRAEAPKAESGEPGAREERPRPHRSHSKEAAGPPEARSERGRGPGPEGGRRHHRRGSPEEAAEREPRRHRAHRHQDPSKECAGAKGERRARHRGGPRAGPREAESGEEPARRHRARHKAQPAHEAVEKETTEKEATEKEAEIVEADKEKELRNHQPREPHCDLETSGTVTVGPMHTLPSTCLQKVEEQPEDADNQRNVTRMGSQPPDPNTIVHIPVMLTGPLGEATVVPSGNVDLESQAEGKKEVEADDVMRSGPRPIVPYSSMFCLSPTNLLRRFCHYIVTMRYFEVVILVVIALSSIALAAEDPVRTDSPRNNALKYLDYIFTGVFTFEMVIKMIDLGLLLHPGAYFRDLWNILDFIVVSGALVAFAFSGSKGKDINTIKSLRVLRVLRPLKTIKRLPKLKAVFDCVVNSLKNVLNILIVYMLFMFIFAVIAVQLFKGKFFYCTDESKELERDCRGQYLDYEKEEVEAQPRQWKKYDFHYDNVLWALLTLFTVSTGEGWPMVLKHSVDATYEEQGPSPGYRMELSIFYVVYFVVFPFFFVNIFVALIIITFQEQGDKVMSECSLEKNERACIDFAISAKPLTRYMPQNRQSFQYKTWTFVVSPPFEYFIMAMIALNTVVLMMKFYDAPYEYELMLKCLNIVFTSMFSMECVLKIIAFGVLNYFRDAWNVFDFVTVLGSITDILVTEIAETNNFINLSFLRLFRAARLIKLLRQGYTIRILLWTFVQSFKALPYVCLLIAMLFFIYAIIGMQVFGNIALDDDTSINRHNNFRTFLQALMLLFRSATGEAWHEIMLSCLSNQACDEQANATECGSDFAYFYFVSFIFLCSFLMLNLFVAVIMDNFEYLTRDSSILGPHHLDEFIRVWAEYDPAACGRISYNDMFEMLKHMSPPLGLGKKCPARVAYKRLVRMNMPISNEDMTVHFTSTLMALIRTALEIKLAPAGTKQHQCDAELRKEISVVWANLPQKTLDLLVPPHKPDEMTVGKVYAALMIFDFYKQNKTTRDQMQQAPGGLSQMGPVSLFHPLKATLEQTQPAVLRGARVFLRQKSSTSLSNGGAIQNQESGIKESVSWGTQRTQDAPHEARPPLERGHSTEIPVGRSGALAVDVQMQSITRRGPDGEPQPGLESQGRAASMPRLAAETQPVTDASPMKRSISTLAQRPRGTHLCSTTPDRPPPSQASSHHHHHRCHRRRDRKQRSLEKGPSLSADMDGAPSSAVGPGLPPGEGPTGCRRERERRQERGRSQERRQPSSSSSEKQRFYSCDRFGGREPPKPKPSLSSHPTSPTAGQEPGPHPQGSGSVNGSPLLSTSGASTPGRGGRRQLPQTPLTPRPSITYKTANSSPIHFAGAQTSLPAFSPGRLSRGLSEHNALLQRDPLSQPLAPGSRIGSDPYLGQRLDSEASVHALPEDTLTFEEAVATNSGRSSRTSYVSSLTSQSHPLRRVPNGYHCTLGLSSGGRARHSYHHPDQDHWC
T3 sequence (Q02410 whole entry): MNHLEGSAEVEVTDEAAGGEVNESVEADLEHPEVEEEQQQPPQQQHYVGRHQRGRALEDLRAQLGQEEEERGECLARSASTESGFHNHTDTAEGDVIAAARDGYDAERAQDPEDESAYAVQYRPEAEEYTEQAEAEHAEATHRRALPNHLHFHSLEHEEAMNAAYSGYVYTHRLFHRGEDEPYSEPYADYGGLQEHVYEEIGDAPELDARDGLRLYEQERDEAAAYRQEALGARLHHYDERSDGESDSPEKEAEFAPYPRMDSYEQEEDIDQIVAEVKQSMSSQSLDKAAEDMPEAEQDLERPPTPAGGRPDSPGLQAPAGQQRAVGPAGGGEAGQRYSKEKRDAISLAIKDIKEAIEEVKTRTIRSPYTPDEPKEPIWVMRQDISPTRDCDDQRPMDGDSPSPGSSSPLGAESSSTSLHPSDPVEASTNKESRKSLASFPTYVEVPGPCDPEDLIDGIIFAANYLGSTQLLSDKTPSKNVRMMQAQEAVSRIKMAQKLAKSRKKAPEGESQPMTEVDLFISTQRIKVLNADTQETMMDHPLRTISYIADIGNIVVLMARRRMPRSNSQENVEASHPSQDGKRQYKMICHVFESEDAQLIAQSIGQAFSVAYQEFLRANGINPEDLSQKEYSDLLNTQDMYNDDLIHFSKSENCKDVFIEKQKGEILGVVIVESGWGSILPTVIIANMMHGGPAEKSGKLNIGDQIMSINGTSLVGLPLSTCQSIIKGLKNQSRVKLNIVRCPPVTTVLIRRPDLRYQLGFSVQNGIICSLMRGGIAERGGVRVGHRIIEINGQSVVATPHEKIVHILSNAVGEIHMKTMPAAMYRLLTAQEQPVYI

[15] = target: T3, Voltage-gated N-type calcium channel alpha-1B subunit/Amyloid beta A4 precursor protein-binding family A member 1; assay type: protein assay
[16] = target: T3, Voltage-gated N-type calcium channel alpha-1B subunit/Amyloid beta A4 precursor protein-binding family A member 1; assay type: protein assay; remark: listed apart in the source
[17] = viability of uninfected HEp-2 cells – cell-based, HTS, cytotoxicity control for RSV inhibitor project, dose response (AID 2410); assay type: functional; conditions: human respiratory syncytial virus
cells [18] = experiment: cells; remark: listed apart in the source
[19] = fluconazole-exposed Candida albicans growth modulators – fluorescence, retest, confirmation (AID 2467); assay type: functional, cell-based
Cytochrome P450 2C9 = Cytochrome P450 2C9 (Homo sapiens, UniProt P11712)
Sequence of Cytochrome P450 2C9 (P11712 whole entry): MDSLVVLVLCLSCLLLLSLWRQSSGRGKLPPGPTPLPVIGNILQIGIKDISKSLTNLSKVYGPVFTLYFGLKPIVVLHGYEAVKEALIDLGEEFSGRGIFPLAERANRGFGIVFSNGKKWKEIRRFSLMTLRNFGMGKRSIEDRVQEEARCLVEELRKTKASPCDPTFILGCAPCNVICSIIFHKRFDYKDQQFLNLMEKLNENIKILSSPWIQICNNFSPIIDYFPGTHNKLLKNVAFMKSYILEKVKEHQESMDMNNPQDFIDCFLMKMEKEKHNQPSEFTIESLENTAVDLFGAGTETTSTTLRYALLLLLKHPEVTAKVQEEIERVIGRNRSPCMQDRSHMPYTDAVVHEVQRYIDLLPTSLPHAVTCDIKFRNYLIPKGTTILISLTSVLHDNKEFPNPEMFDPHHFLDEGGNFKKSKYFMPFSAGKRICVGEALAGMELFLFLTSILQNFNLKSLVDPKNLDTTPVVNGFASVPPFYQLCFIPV

Coagulation factor XII = target: T4, Coagulation factor XII (Homo sapiens, UniProt P00748); assay type: functional;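 further: activated factor XIIa alpha cleaving a fluorogenic AMC peptide substrate; inhibitor potency from loss of enzyme activity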
T4 sequence (P00748 whole entry): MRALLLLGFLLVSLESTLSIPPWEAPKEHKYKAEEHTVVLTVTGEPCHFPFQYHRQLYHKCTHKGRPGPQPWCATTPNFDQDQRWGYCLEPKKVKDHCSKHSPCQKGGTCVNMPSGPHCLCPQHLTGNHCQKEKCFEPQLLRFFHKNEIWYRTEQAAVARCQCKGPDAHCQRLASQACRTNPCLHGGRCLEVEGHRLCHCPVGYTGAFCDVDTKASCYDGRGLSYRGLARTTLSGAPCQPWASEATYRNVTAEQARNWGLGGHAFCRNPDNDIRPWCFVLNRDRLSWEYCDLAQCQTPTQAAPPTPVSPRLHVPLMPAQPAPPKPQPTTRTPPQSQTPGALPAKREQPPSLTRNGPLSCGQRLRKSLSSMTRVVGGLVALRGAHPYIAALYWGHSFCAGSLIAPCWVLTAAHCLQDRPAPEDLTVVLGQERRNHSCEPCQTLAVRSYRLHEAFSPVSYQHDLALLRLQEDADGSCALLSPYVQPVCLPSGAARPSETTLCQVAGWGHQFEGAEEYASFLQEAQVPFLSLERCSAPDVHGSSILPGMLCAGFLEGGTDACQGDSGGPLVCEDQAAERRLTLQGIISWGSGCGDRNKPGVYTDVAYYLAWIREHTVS

Cytochrome P450 3A4 = Cytochrome P450 3A4 (Homo sapiens, UniProt P08684);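 further: CYP3A4 tested as one member of a cytochrome P450 panel screen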
Sequence of Cytochrome P450 3A4 (P08684 whole entry): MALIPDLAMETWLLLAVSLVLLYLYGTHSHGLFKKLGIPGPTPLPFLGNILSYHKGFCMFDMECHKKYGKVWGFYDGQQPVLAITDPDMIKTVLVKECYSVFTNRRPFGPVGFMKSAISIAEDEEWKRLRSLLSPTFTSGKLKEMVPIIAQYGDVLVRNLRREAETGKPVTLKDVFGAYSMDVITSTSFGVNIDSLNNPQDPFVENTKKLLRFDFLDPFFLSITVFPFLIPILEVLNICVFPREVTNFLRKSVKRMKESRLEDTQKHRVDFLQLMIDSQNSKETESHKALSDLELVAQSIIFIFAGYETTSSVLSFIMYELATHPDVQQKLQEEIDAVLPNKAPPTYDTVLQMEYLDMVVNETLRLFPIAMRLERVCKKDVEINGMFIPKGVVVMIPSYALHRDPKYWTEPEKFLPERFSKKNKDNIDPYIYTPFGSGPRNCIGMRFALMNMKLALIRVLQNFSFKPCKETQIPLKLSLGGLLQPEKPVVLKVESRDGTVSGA

[20] = NIH-3T3 fibroblast cytotoxicity, dose response, cytotoxicity control, cell-based, fluorescence, Alamar Blue, secondary assay (AID 2327); assay type: functional;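 further: NIH-3T3 mouse fibroblasts cultured with fluconazole at 8 µg/mL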
[21] = target: T5, DNA repair protein RAD52 homolog (Homo sapiens, UniProt P43351); assay type: functional, biochemical
T5 sequence (P43351 whole entry): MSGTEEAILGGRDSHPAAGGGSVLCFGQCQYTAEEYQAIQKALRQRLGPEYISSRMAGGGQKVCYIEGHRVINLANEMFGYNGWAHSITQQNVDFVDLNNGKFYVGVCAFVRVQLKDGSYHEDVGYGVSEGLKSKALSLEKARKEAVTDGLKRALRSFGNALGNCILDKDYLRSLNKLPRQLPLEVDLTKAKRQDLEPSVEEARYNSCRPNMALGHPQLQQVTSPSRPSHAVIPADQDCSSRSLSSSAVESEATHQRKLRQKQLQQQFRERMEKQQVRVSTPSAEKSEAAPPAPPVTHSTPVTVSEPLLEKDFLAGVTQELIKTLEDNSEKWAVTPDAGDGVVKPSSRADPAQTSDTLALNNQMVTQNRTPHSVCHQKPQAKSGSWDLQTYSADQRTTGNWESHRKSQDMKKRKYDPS

[22] = target: T6, DNA repair and recombination protein RAD54-like (Homo sapiens, UniProt Q92698); experiment: RAD54 Holliday junction migration blockers – biochemical, fluorescence, cherry-picked samples, dose series, confirmation (AID 651657); assay type: functional
T6 sequence (Q92698 whole entry): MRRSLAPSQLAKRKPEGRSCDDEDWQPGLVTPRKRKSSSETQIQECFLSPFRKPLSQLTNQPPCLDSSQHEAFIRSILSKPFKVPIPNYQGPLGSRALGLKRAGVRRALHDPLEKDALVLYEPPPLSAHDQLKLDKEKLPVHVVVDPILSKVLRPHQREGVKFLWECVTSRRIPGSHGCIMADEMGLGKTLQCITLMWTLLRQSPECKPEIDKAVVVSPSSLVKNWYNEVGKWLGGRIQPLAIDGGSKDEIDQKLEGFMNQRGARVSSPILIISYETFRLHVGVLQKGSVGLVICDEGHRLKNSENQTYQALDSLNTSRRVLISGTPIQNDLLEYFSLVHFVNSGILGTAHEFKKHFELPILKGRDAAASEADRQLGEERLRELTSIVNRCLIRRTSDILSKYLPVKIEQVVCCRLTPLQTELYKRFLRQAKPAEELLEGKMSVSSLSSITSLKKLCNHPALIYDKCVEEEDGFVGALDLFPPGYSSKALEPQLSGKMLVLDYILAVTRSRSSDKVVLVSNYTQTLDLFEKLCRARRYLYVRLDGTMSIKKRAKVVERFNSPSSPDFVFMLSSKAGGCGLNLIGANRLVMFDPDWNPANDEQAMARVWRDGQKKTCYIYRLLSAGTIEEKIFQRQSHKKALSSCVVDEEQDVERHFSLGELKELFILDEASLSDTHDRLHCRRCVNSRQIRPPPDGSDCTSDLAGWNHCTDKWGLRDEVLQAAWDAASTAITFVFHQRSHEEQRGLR

Cc1nc(N2CCC(C)CC2)c2c(C)c(C(=O)Nc3cc(F)ccc3C)sc2n1
IC50 (HEK293 [1]): > 20 µM (inactive) | EC50 [2]: > 20 µM (inactive) | IC50 (HEK293 [3]): > 20 µM (inactive) | IC50 (HEK293 [4]): > 20 µM (inactive) | EC50 (HEK293 [5]): > 20 µM (inactive) | IC50 (HEK293 [6]): > 20 µM (inactive)

O=C(NN(c1ccccc1)c1ccccc1)c1ccc([N+](=O)[O-])o1
EC50 [7]: 44.6 µM (active) | EC50 [8]: < 0.1 µM (active) | EC50 [9]: > 60 µM (not active) | EC50 [10]: > 120 µM (not active) | EC50 (cells [11]): 0.14 µM (active) | CC50 (Vero): 17.4 µM (active) | EC50 (H4): > 120 µM (not active)

Cc1cc(Cl)ccc1OC(C)C(=O)NCCCCc1ccccc1 (stereo not given)
CC50 [12]: > 40 µM (active)

O=C1COc2ccc(C(=O)CCl)cc2N1
CC50 [12]: 31.8 µM (active) | AC50 [13]: 40.4 µM (active) | EC50 (Protein RecA): 26.3 µM (active)

NC(=O)[C@@H]1CC2(CC(c3cccc(NC(=O)COc4ccc(Cl)cc4)c3)=NO2)CN1C(=O)COc1ccc(Cl)cc1 (stereo not given in full)
CC50 [12]: > 40 µM (active)

O=C(CSc1ccc(Cl)cc1)Nc1cccc(-c2nc3ccccc3[nH]2)c1
IC50 [14]: 26.9 µM (active) | IC50 [15]: 36.7 µM (active) | IC50 [16]: 2.75 µM (active)

CC(CCc1ccc(O)cc1)NC(c1ccccc1)c1ccc(Cl)cc1 (stereo not given)
CC50 [17]: 10.3 µM (active) | IC50 (cells [18]): 11.8 µM (active)

Oc1nc(COc2ccc(Br)cc2Cl)nc2ccccc12
CC50 [17]: 23.6 µM (active) | IC50 (cells [18]): 30.7 µM (active)

COc1cccc(NC(=O)c2cc(-c3cccnc3)nc3c(Cl)cccc23)c1
CC50 [12]: 33.5 µM (active)

Cc1cc(C(C#N)c2cccc(Cl)c2)n2ncnc2n1 (stereo not given)
EC50 [19]: 0.598 µM (active) | AC50 (Cytochrome P450 2C9): inconclusive | IC50 (Coagulation factor XII): > 50 µM (inactive) | AC50 (Cytochrome P450 3A4): 14.1 µM (inconclusive) | EC50 [20]: > 160 µM (inactive)

CCc1c(C)nc(N)nc1N1N=C1SCC#N
IC50 (Coagulation factor XII): > 50 µM (inactive)

CN(C)CCCN(C(=O)c1ccco1)c1nc(-c2ccc(Cl)cc2)cs1
EC50 [8]: < 0.1 µM (active) | EC50 [9]: > 60 µM (not active) | AC50 [21]: 17.3 µM (active) | EC50 (cells [11]): 0.254 µM (active) | CC50 (Vero): > 25 µM (active) | AC50 [22]: 64.1 µM (active)

C/C(=N\NC(=O)c1ccc(NS(=O)(=O)c2cccs2)cc1)c1ccc(C(C)(C)C)cc1
CC50 [17]: 20.6 µM (active) | IC50 (cells [18]): 8.48 µM (active)
